According to patent US20240252463A1, “METHODS OF TREATING FIBROTIC PATHOLOGIES” (Mayo Foundation for Medical Education and Research, priority 2018, published 2024):
Structures can show the parent of a compound that is named as a salt. Where two headings read alike, the source gives them in different places.

Legend:
YAP/TAZ = YAP/TAZ nuclear localization (immunofluorescence, automated imaging) in IPF patient-derived lung fibroblasts; format: cell-based, human
αSMA = αSMA intensity (fibroblast activation) in IPF patient-derived lung fibroblasts + TGFβ; format: cell-based, human; settings: Homo sapiens, SMA, 1 μM + TGFβ, treated for 72 hours
αSMA+ stress fibers = assay: TGFβ-induced αSMA+ stress fiber formation; format: cell-based, human; settings: TGFβ 48 hours, then dopamine 1 μM + TGFβ 24 hours
Method: ImmunofluorescenceMicroscopy: Cells were plated into 96 well plates (Corning 3603) in their specific growth media and allowed to attach (8 hours). Media was then exchanged for the indicated conditions for each experiment. Cells were fixed in 3.7% formalin (Sigma-Aldrich), permeabilized in 0.25% Triton X-100 (Sigma-Aldrich) and then blocked with 1% BSA for 1 h. Cells or tissue sections were incubated overnight with mouse monoclonal antibody against αSMA (Sigma-Aldrich F3777), and/or a rabbit monoclonal antibody against YAP/TAZ (Cell Signaling D24E4) diluted 1:200 in PBS with 1% BSA.

[1] = system: IPF patient derived fibroblasts; assay: Traction Force Microscopy of IPF patient derived fibroblasts; format: cell-based, human; settings: IPF fibroblasts on 6.4 kPa matrices
Method: Traction Force Microscopy: Traction analysis was conducted as previously described. Briefly, polyacrylamide substrates with shear moduli of 6.4 kPa were prepared, and fluorescent sulfate-modified latex microspheres (0.2 μm, 505/515 ex/em) (FluoSpheres, Life Technologies) were conjugated to the gel surfaces after treatment with 1 mg ml^−1 of dopamine hydrochloride (Sigma-Aldrich) in 50 mM HEPES solution (pH 8.5). IPF patient derived fibroblasts were plated on the gels overnight and treated as indicated before traction force measurements. Images of gel surface-conjugated fluorescent beads were acquired for each cell before and after trypsinization using a Nikon ECLIPSE Ti microscope at ×10 magnification. Traction forces were estimated by measuring bead displacement fields and computing corresponding traction fields using TractionsForAll (freely distributed program that calculates 2-D tractions exerted by an adherent cell on its substrate).

[2] = system: YAP/TAZ-TEAD interactions; settings: Ref. 19; cited from earlier work
human dermal fibroblasts = assay: Profibrotic gene expression in human dermal fibroblasts +/- TGFβ; format: cell-based; settings: 24 hours +/− 2 ng/mL TGFβ
Method: Human dermal fibroblasts treated for 24 hours+/−2 ng/mL TGFβ and D1 agonists: DHX and A68930 prior to RNA isolation. N=2. For all other in vitro experiments, cells were treated as indicated prior to RNA isolation using RNeasy Plus Mini Kit (Qiagen) according to manufacturer's instructions. Isolated RNA (250 ng) was then used to synthesize cDNA using SuperScript VILO (Invitrogen). Quantitative PCR was performed using FastStart Essential DNA Green Master (Roche) and analyzed using a LightCycler 96 (Roche). Data are expressed as a fold change by ΔΔCt relative to GAPDH. For in vivo experiments, tissue was immediately frozen, and stored at −80° C. RNA isolation, cDNA synthesis, and qPCR analysis were performed as above.

[3] = patient sample IPF-1, read-out: αSMA intensity (% of DMSO control) IPF-1
[4] = patient sample IPF-2, read-out: αSMA intensity (% of DMSO control) IPF-2
[5] = patient sample IPF-3, read-out: αSMA intensity (% of DMSO control) IPF-3
[6] = patient sample IPF-4, read-out: αSMA intensity (% of DMSO control) IPF-4

| Compound | YAP/TAZ nuclear localization, low density IPF fibroblasts (YAP/TAZ; tissue culture plastic (FIG. 34A)) | activity at 1 µM (αSMA; [3]) [%] | activity at 1 µM (αSMA; [4]) [%] | activity at 1 µM (αSMA; [5]) [%] | activity at 1 µM (αSMA; [6]) [%] | αSMA+ stress fiber formation in IPF-patient derived fibroblasts (αSMA+ stress fibers) | contractile forces (traction force microscopy) [1] | effects in models of liver fibrosis [2] | Nuclear localization (% of total cells) IPF-1 (YAP/TAZ; patient sample IPF-1, 10 μM, treated 2 hours prior to fixation) | Nuclear localization (% of total cells) IPF-2 (YAP/TAZ; patient sample IPF-2, 10 μM, treated 2 hours prior to fixation) | Nuclear localization (% of total cells) IPF-3 (YAP/TAZ; patient sample IPF-3, 10 μM, treated 2 hours prior to fixation) | Nuclear localization (% of total cells) IPF-4 (YAP/TAZ; patient sample IPF-4, 10 μM, treated 2 hours prior to fixation) | profibrotic gene expression in human dermal fibroblasts (human dermal fibroblasts) |
| --- | --- | --- | --- | --- | --- | --- | --- | --- | --- | --- | --- | --- | --- |
| NCCc1ccc(O)c(O)c1 [Dopamine•HCl, Dopamine] | inhibits YAP/TAZ nuclear localization | 35.2 | 8.09 | 26.6 | 5.37 | reverses αSMA+ stress fiber formation | attenuates IPF fibroblast contractility |  |  |  |  |  |  |
| verteporfin |  |  |  |  |  |  |  | limited beneficial effects |  |  |  |  |  |
| NCC1OC(c2ccccc2)Cc2c1ccc(O)c2O (centres unmarked) [A 68930•HCl] |  | 12.4 | 8.11 | 3.25 | 7.35 |  |  |  | 33.13 % of total cells | 30.59 % of total cells | 26.82 % of total cells | 10.26 % of total cells | blocks profibrotic gene expression |
